Patent publication US11420968B2 (priority 2018, dated 2022)

Columns and labels:
[1] = target: T1, Bcl-2 (Homo sapiens (Human), UniProt P10415); assay: biochemical; conditions: Biochemical activity (IC50, nM) BCL-2
[2] = system: RS4;11 cells
Description: Each compound was serially diluted with 1 μM as the maximum concentration. To test the apoptotic effect of the compounds, the cells were seeded at 50,000 in 180 μl per well in 96-well plates and treated with 10-point dilution series of each compound for 48 hours at 37° C. Cell viability was assessed after the treatment using CellTiter-GLO luminescent assay (Promega) according to the manufacturer's recommendations. Briefly, 30 μl of CellTiter-GLO reagent was added into 200 μl of cell culture. Mixture was agitated on an orbital shaker for 5 minutes to ensure cell lysis followed by 7 mins incubation at room temperature to allow development and stabilization of luminescent signals, which corresponded to quantity of ATP and thus the quantity of metabolically active cells. Luminescent signals were measured using PHERAstar FS reader (BMG). Mean IC50 values for cell viability were determined with GraphPad Prism software. […] The anti-proliferative IC50s of these compounds were similarly determined as a percentage of viable cells upon treatment compared to the untreated control using CellTiter-GLO luminescent assay.

[3] = target: T1, Bcl-2

Compound	IC50 [1]	folds less potent than its analog in cellular assay [2]	folds less potent than its analog in biochemical assay [3]
O=C(NS(=O)(=O)c1ccc(NCC2CCOCC2)c([N+](=O)[O-])c1)c1ccc(N2CCC3(CCC(N4CCC[C@H]4c4ccccc4C4CC4)CC3)C2)cc1Oc1cnc2[nH]ccc2c1 (stereo partly drawn) [Example F42, (S)-2-((1H-pyrrolo[2,3-b]pyridin-5-yl)oxy)-4-(8-(2-(2-cyclopropylphenyl)pyrrolidin-1-yl)-2-azaspiro[4.5]decan-2-yl)-N-((3-nitro-4-(((tetrahydro-2H-pyran-4-yl)methyl)amino)phenyl)sulfonyl)benzamide]	44 nM	–	–
O=C(NS(=O)(=O)c1ccc(NCC2CCOCC2)c([N+](=O)[O-])c1)c1ccc(N2CC3(CN(CC4CCCN4c4ccccc4C4CC4)C3)C2)cc1Oc1cnc2[nH]ccc2c1 (stereo not drawn) [Example F114, 2-((1H-pyrrolo[2,3-b]pyridin-5-yl)oxy)-4-(6-((1-(2-cyclopropylphenyl)pyrrolidin-2-yl)methyl)-2,6-diazaspiro[3.3]heptan-2-yl)-N-((3-nitro-4-(((tetrahydro-2H-pyran-4-yl)methyl)amino)phenyl)sulfonyl)benzamide]	–	15 to 22 folds	28 to 80 folds
